Test results from patent US20110230419A1, “IAP BINDING COMPOUNDS” (Nuevolution A/S, priority 2008, published 2011).
Where a SMILES comes first, the peptide text is derived from it. [ ]: non-standard residue; d: D form. Pro(cis-4-Ph) = O=C(O)[C@@H]1C[C@H](c2ccccc2)CN1; Phe(3-CN) = N#Cc1cccc(C[C@H](N)C(=O)O)c1; Ala(2-furyl) = N[C@@H](Cc1ccco1)C(=O)O; Abu = CC[C@H](N)C(=O)O

Tests used:
XIAP BIR3 [1] = molecular target: T1, XIAP BIR3 (Homo sapiens, UniProt P98170); assay: Biotinylated BIR3 XIAP domain Alphascreen assay; parameters: biotinylated XIAP BIR3; biotin (biotinylated); conditions: biotinylated XIAP BIR3, FITC-labeled IAP-binding molecule, Streptavidin Donor / Anti-FITC Acceptor Beads, incubation 2 hours; concentration reducing alphascreen signal to half of maximum
Experimental: Biotinylated BIR3 XIAP Domain Alphascreen Assay Compounds were incubated with Streptavidin Donor Beads, Anti-FITC Acceptor Beads, biotinylated XIAP BIR3 and a FITC-labeled IAP-binding molecule. Following incubation for 2 hours the wells were read in an Envision reader. IC50s correspond to the concentration of compound which reduces the alphascreen signal to half of the maximum.
Target sequence in this assay (P98170 241-356 limits assumed): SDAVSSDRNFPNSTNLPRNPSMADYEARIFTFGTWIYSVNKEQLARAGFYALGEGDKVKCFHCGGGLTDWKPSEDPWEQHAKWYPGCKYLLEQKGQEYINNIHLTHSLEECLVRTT

XIAP BIR3 [2] = molecular target: T1, XIAP BIR3; assay: HIS-tagged BIR3 XIAP domain Alphascreen assay; parameters: HIS-tagged XIAP BIR3 (RnD systems); purchased RnD systems; conditions: HIS-tagged XIAP BIR3 (RnD systems), biotin-labeled IAP-binding molecule, Streptavidin Donor / Ni-NTA Acceptor Beads, incubation 2 hours; concentration reducing alphascreen signal to half of maximum
Experimental: HIS-Tagged BIR3 XIAP Domain Alphascreen Assay
Compounds were incubated with Streptavidin Donor Beads, Ni-NTA Acceptor Beads, HIS-tagged XIAP BIR3 (RnD systems) and a biotin-labeled IAP-binding molecule. Following incubation for 2 hours the wells were read in an Envision reader. IC50s correspond to the concentration of compound which reduces the alphascreen signal to half of the maximum.
Target sequence in this assay (P98170 252-356 limits assumed): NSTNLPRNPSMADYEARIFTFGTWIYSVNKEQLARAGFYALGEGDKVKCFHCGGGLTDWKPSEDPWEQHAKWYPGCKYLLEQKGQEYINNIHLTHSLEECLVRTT

Row | Structure (SMILES) | IC50 (XIAP BIR3 [1]) | IC50 (XIAP BIR3 [2])
1 | C[C@H](N)C(=O)N[C@@H](Cc1cccc(C(N)=O)c1)C(=O)N1CC(C(=O)NC2CCc3ccccc32)C1c1ccccc1 (stereo in doubt) [Example 24, 1-((S)-2-((S)-2-aminopropanamido)-3-(3-carbamoylphenyl)propanoyl)-N—((R)-2,3-dihydro-1H-inden-1-yl)-2-phenylazetidine-3-carboxamide] | 0.1 to 100 nM | 
2 | CNC(C)c1ccc(C(=O)N2C[C@@H](c3ccccc3)C[C@H]2C(=O)N2CC[C@H](c3ccccc3)C2)o1 (stereo partly drawn) [Example 1, [5-(1-Methylamino-ethyl)-furan-2-yl]-[(2S,4R)-4-phenyl-2-((R)-3-phenyl-pyrrolidine-1-carbonyl)-pyrrolidin-1-yl]-methanone] |  | 0.1 to 100 nM
3 | CC(N)c1ccc(C(=O)N2C[C@@H](c3ccccc3)C[C@H]2CN2CC[C@H](c3ccccc3)C2)o1 (stereo partly drawn) [Example 2, (5-(1-Aminoethyl)furan-2-yl)((2S,4R)-4-phenyl-2-(((R)-3-phenylpyrrolidin-1-yl)methyl)pyrrolidin-1-yl)methanone] | 100 to 1000 nM | 
4 | CNC(C)c1cccc(C(=O)N2C[C@@H](c3ccccc3)C[C@H]2C(=O)N2CC[C@H](c3ccccc3)C2)c1 (stereo partly drawn) [Example 3, [3-(1-Methylamino-ethyl)-phenyl]-[(2S,4R)-4-phenyl-2-((R)-3-phenyl-pyrrolidine-1-carbonyl)-pyrrolidin-1-yl]-methanone] |  | 100 to 1000 nM
5 | CC(N)c1ccc(C(=O)N2C[C@@H](c3ccccc3)C[C@H]2C(=O)N2CC[C@H](c3ccccc3)C2)o1 (stereo partly drawn) [Example 5, [5-(1-Amino-ethyl)-furan-2-yl]-[(2S,4R)-4-phenyl-2-((R)-3-phenyl-pyrrolidine-1-carbonyl)-pyrrolidin-1-yl]-methanone] | 0.1 to 100 nM | 
6 | CC(N)c1cccc(C(=O)N2C[C@@H](c3ccccc3)C[C@H]2C(=O)N2CC[C@H](c3ccccc3)C2)c1 (stereo partly drawn) [Example 6, [3-(1-Amino-ethyl)-phenyl]-[(2S,4R)-4-phenyl-2-((R)-3-phenyl-pyrrolidine-1-carbonyl)-pyrrolidin-1-yl]-methanone] | 100 to 1000 nM | 
7 | C[C@@H](N)C1CCCC(C(=O)N2C[C@@H](c3ccccc3)C[C@H]2C(=O)N2CC[C@H](c3ccccc3)C2)N1 (stereo partly drawn) [Example 7, [6-((R)-1-Amino-ethyl)-piperidin-2-yl]-[(2S,4R)-4-phenyl-2-((R)-3-phenyl-pyrrolidine-1-carbonyl)-pyrrolidin-1-yl]-methanone] | > 1000 nM | 
8 | C[C@H](N)C1CCCC(C(=O)N2C[C@@H](c3ccccc3)C[C@H]2C(=O)N2CC[C@H](c3ccccc3)C2)N1 (stereo partly drawn) [Example 8, [6-((S)-1-Amino-ethyl)-piperidin-2-yl]-[(2S,4R)-4-phenyl-2-((R)-3-phenyl-pyrrolidine-1-carbonyl)-pyrrolidin-1-yl]-methanone] | 100 to 1000 nM | 
9 | CNC(C)c1ccc(C(=O)N2C[C@@H](c3ccc(F)cc3)C[C@H]2C(=O)N2CCC(c3ccc(F)cc3)C2)o1 (stereo partly drawn) [Example 9, {(2S,4R)-4-(4-Fluoro-phenyl)-2-[3-(4-fluoro-phenyl)-pyrrolidine-1-carbonyl]-pyrrolidin-1-yl}-[5-(1-methylamino-ethyl)-furan-2-yl]-methanone] |  | 0.1 to 100 nM
10 | CNC(C)c1ccc(C(=O)N2C[C@@H](c3ccccc3)C[C@H]2CN2CC[C@H](c3ccccc3)C2)o1 (stereo partly drawn) [Example 10, (5-(1-(methylamino)ethyl)furan-2-yl)((2S,4R)-4-phenyl-2-(((R)-3-phenylpyrrolidin-1-yl)methyl)pyrrolidin-1-yl)methanone] |  | 100 to 1000 nM
11 | CNC(C)c1cccc(C(=O)N2C[C@@H](c3ccccc3)C[C@H]2CN2CC[C@H](c3ccccc3)C2)c1 (stereo partly drawn) [Example 11, (3-(1-(methylamino)ethyl)phenyl)((2S,4R)-4-phenyl-2-(((R)-3-phenylpyrrolidin-1-yl)methyl)pyrrolidin-1-yl)methanone] |  | 100 to 1000 nM
12 | O=C(N[C@@H]1CCc2ccccc21)[C@@H]1C[C@@H](C2CCCCC2)CN1C(=O)C1CC2(CCNCC2)CN1 (stereo partly drawn) [Example 13, (2S,4S)-4-Cyclohexyl-1-(2,8-diaza-spiro[4.5]decane-3-carbonyl)-pyrrolidine-2-carboxylic acid (R)-indan-1-ylamide] |  | 100 to 1000 nM
13 | O=C(N[C@H](C(=O)N[C@@H]1CCc2ccccc21)C1CCCCC1)C1CC2(CCNCC2)CN1 (stereo partly drawn) [Example 14, 2,8-Diaza-spiro[4.5]decane-3-carboxylic acid [(S)-cyclohexyl-((R)-indan-1-ylcarbamoyl)-methyl]-amide] |  | 100 to 1000 nM
14 | CNC(=O)[C@@H]1C[C@H](c2ccccc2)CN1C(=O)[C@@H]1C[C@H](c2ccccc2)CN1C(=O)[C@H](Cc1ccco1)NC(=O)[C@H](C)N [Example 15] (H-A[Ala(2-furyl)][Pro(cis-4-Ph)][Pro(cis-4-Ph)]-NHMe) | 0.1 to 100 nM | 
15 | CC[C@H](NC(=O)[C@H](C)N)C(=O)N1C[C@@H](c2ccccc2)C[C@H]1C(=O)N1C[C@@H](c2ccccc2)C[C@H]1C(=O)NC [Example 16, (2S,4R)-1-((3R,5S)-1-((S)-2-((S)-2-aminopropanamido)butanoyl)-3-phenylpyrrolidine-5-carbonyl)-N-methyl-4-phenylpyrrolidine-2-carboxamide] (H-A[Abu][Pro(cis-4-Ph)][Pro(cis-4-Ph)]-NHMe) | 0.1 to 100 nM | 
16 | C[C@@H](N)C(=O)N[C@@H](Cc1ccc(C(N)=O)cc1)C(=O)N1C[C@@H](c2ccccc2)C[C@H]1C(=O)N[C@@H]1CCc2ccccc21 [Example 17, (2S,4R)-1-((S)-2-((R)-2-aminopropanamido)-3-(4-carbamoylphenyl)propanoyl)-N—((R)-2,3-dihydro-1H-inden-1-yl)-4-phenylpyrrolidine-2-carboxamide] | 0.1 to 100 nM | 
17 | C[C@H](N)C(=O)N[C@@H](Cc1cccc(C(N)=O)c1)C(=O)N1CC(c2ccccc2)C1C(=O)N[C@@H]1CCc2ccccc21 (stereo partly drawn) [Example 18, 1-((S)-2-((S)-2-aminopropanamido)-3-(3-carbamoylphenyl)propanoyl)-N—((R)-2,3-dihydro-1H-inden-1-yl)-3-phenylazetidine-2-carboxamide] | 0.1 to 100 nM | 
18 | C[C@H](N)C(=O)N[C@@H](Cc1cccc(C#N)c1)C(=O)N1C[C@@H](c2ccccc2)C[C@H]1C(=O)N[C@@H]1CCc2ccccc21 [Example 19, (2S,4R)-1-((S)-2-((S)-2-aminopropanamido)-3-(3-cyanophenyl)propanoyl)-N—((R)-2,3-dihydro-1H-inden-1-yl)-4-phenylpyrrolidine-2-carboxamide] | 0.1 to 100 nM | 
19 | CNC(=O)[C@@H]1C[C@H](c2ccccc2)CN1C(=O)[C@@H]1C[C@H](c2ccccc2)CN1C(=O)[C@H](Cc1cccc(C#N)c1)NC(=O)[C@H](C)N [Example 20, (2S,4R)-1-((3R,5S)-1-((S)-2-((S)-2-aminopropanamido)-3-(3-cyanophenyl)propanoyl)-3-phenylpyrrolidine-5-carbonyl)-N-methyl-4-phenylpyrrolidine-2-carboxamide] (H-A[Phe(3-CN)][Pro(cis-4-Ph)][Pro(cis-4-Ph)]-NHMe) | 0.1 to 100 nM | 
20 | CNC(=O)[C@@H]1C[C@H](c2ccccc2)CN1C(=O)[C@@H]1C[C@H](c2ccccc2)CN1C(=O)C(Cn1cncn1)NC(=O)[C@H](C)N (stereo partly drawn) [Example 21, (2S,4R)-1-((3R,5S)-1-(2-((S)-2-aminopropanamido)-3-(1H-1,2,4-triazol-1-yl)propanoyl)-3-phenylpyrrolidine-5-carbonyl)-N-methyl-4-phenylpyrrolidine-2-carboxamide] | 0.1 to 100 nM | 
21 | CC[C@H](NC)C(=O)N[C@@H](Cc1cccc(C#N)c1)C(=O)N1C[C@@H](c2ccccc2)C[C@H]1CN1CC[C@H](c2ccccc2)C1 [Example 22, (S)—N—((S)-3-(3-cyanophenyl)-1-oxo-1-((2S,4R)-4-phenyl-2-(((R)-3-phenylpyrrolidin-1-yl)methyl)pyrrolidin-1-yl)propan-2-yl)-2-(methylamino)butanamide] | 0.1 to 100 nM | 
22 | C[C@@H](N)C(=O)N[C@@H](Cc1cccc(C(N)=O)c1)C(=O)N1C[C@@H](c2ccccc2)C[C@H]1C(=O)N[C@@H]1CCc2ccccc21 [Example 23, (2S,4R)-1-((S)-2-((R)-2-aminopropanamido)-3-(3-carbamoylphenyl)propanoyl)-N—((R)-2,3-dihydro-1H-inden-1-yl)-4-phenylpyrrolidine-2-carboxamide] | 0.1 to 100 nM | 
